According to patent publication US12479823B2, “Compound for use in retinal diseases” (ZHUHAI UNITED LABORATORIES CO., LTD., priority 2018, dated 2025):

How the values were obtained:
CYP2D6 = target: T1, CYP2D6 (Homo sapiens, UniProt P10635); test: Inhibition of human liver microsomal cytochrome P450 CYP2D6; assay type: in vitro ADME; conditions: human liver microsomes, probe substrate, NADPH
T1 construct: fused human liver microsomes were selected as a CYP450 enzyme source; from tissue; host or cells: pooled ("fused") human liver microsomes
From the text: (§1) Objective: To study the inhibitory effect of compounds on human liver microsomal cytochrome P450. Experimental procedures: In the study on inhibition of the compounds on the human liver microsomal cytochrome P450 (CYP1A2, CYP2C9, CYP2C19, CYP2D6 and CYP3A4), fused human liver microsomes were selected as a CYP450 enzyme source. […]

[1] = Pharmacokinetics in cynomolgus monkeys, single intravenous injection; assay type: in vivo; conditions: male, cynomolgus monkey, plasma, 1 mg/kg single intravenous injection
Method: Objective: To Study Pharmacokinetics of the Compound in Cynomolgus Monkeys
Experimental material: Cynomolgus Monkeys (male, 2.5-4 kg, greater than or equal to 2 years, Jingang Biotech)
(§2) Pharmacokinetic profiles of the compound were tested by intravenous administration in monkeys according to the standard protocol. In the study, the candidate compound was prepared as a clear solution, and was administered to cynomolgus monkeys at 1 mg/kg by single intravenous injection. A vehicle for intravenous injection was a 10% hydroxypropyl ß-cyclodextrin aqueous solution. Whole blood samples were collected at 0.033, 0.083, 0.25, 0.5, 1, 2, 4, 8, 12, and 24 hours, respectively, centrifuged at 3000 r for 10 min, and separated from supernatant to obtain plasma samples. 20 μL of plasma samples were mixed with 400 μL of acetonitrile precipitated proteins containing an internal standard, and 2 μL of the supernatant was injected by centrifugation. Plasma concentrations were quantified by LC-MS/MS analysis, and pharmacokinetic parameters, such as clearance, half-life, and area under the concentration-time curve, etc. were calculated.

CYP3A4 = target: T2, CYP3A4 (Homo sapiens, UniProt P08684); test: Inhibition of human liver microsomal cytochrome P450 CYP3A4; assay type: in vitro ADME; conditions: human liver microsomes, two probe substrates, NADPH
T2 construct: fused human liver microsomes were selected as a CYP450 enzyme source; from tissue; host or cells: pooled ("fused") human liver microsomes
From the text: as §1

[2] = Pharmacokinetics in SD rats, intravenous injection for 5 consecutive days; assay type: in vivo; conditions: male, Sprague-Dawley (SD), rat, plasma, 20 mg/kg, 20 mg/kg intravenous daily
Method: Objective: To study 5-day Toxicology of Compounds in SD Rats
Experimental materials: SD rats (male, 200-300 g, 7-9 weeks old, Shanghai Lingchang)
Pharmacokinetic profiles of the compound were tested by intravenous injection in rodents according to the standard protocol. In the study, the candidate compound was prepared as a clear solution, and was administered to SD rats at 20 mg/kg by single intravenous injection for 5 consecutive days. A vehicle for intravenous injection was a 10% hydroxypropyl β-cyclodextrin aqueous solution. Whole blood samples were collected at 0.033, 0.083, 0.25, 0.5, 1, 2, 4, 8, and 24 hours postdose on Day 1 and Day 5 of dosing, centrifuged at 3000 r for 10 min, and separated from supernatant to obtain plasma samples. 15 μL of plasma samples were mixed with 300 μL of acetonitrile precipitated proteins containing an internal standard, and 2 μL of the supernatant was injected by centrifugation. Plasma concentrations were quantified by LC-MS/MS analysis, and pharmacokinetic parameters, such as clearance, half-life, and area under the concentration-time curve, were calculated.

CYP2C19 = target: T3, CYP2C19 (Homo sapiens, UniProt P33261); test: Inhibition of human liver microsomal cytochrome P450 CYP2C19; assay type: in vitro ADME; conditions: human liver microsomes, probe substrate, NADPH
T3 construct: fused human liver microsomes were selected as a CYP450 enzyme source; from tissue; host or cells: pooled ("fused") human liver microsomes
From the text: as §1

[3] = In vitro aldehyde capture capacity test (complexing with nonanal, HPLC at 254 nm)
Method: Objective: dry eye disease is caused by inflammation in eyes, wherein the inflammation may produce aldehydes that will accelerate the inflammation symptoms and worsen the dry eye disease if not eliminated in time. In the experiment, a better compound was selected according to the complexing capacity of the drug and aldehydes in vivo by simulating the in vivo environment.
Procedures: Sulfobutyl-B-cyclodextrin (310 mg) was dissolved in a phosphate buffer (1.25 mL) to prepare a solution.
Nonanal (5.0 mg, 32 μmol, 1.0 eq) and triolein (300 mg) were added to a reaction flask at room temperature, after addition of the prepared solution described above, linoleic acid (300 mg) was added, and finally a dimethyl sulfoxide (0.15 ml) solution containing the compound (32 μmol, 1.0 eq) of the present disclosure was added; the reaction solution was reacted at 20-23° C.
The reaction solution was reacted under stirring for 10 min, 100 min, 200 min, and 300 min respectively, and sampled for high performance liquid chromatography after the solution was stratified after standing for 2 min.
Sampling method: 25 μl of an upper emulsified layer and 50 μl of a lower aqueous phase were sampled by a pipette, and samples were diluted with 1 mL of methanol.
The ultraviolet absorption of the nonanal was weak at 254 nm, so the nonanal had little overall effect on the content of complexed products. Therefore, the percentage contents of complexes at 254 nm under high performance liquid chromatography were compared to observe aldehyde capture and complexing capacities, as shown in FIG. 1 and Table 1:
Taking The compound 7 as an example, after 300 min of reaction, the analytical method for HPLC was XBRIGE 2.5 μm, 3.0*100 mm 5-80CD_XBEH_12 min_0.8.1 cm;
Retention time 6.689 min, 6.787 min, 6.966 min, and 7.102 min were absorption peaks of products complexed with monomolecular aldehyde;
Retention time 8.905 min, 9.010 min, and 9.075 min were absorption peaks of products complexed with bimolecular aldehyde.

[4] = Pharmacokinetics in Beagle dogs, single intravenous injection; assay type: in vivo; conditions: male, dog, plasma, 1 mg/kg single intravenous injection
Method: Objective: To Study Pharmacokinetics of the Compound in Beagle Dogs
Experimental Material: Beagle Dogs (male, 8-11 kg, greater than or equal to 6 months, Marshall)
as §2, with “[…]” for “monkeys”, “Beagle dogs” for “cynomolgus monkeys”

CYP2C9 = target: T4, CYP2C9 (Homo sapiens, UniProt P11712); test: Inhibition of human liver microsomal cytochrome P450 CYP2C9; assay type: in vitro ADME; conditions: human liver microsomes, probe substrate, NADPH
T4 construct: fused human liver microsomes were selected as a CYP450 enzyme source; from tissue; host or cells: pooled ("fused") human liver microsomes
From the text: as §1

[5] = read-out: Area under the concentration-time curve AUC
[6] = read-out: Half-time T1/2 (converted)

T4 sequence (P11712 whole entry, the tested form may be a part): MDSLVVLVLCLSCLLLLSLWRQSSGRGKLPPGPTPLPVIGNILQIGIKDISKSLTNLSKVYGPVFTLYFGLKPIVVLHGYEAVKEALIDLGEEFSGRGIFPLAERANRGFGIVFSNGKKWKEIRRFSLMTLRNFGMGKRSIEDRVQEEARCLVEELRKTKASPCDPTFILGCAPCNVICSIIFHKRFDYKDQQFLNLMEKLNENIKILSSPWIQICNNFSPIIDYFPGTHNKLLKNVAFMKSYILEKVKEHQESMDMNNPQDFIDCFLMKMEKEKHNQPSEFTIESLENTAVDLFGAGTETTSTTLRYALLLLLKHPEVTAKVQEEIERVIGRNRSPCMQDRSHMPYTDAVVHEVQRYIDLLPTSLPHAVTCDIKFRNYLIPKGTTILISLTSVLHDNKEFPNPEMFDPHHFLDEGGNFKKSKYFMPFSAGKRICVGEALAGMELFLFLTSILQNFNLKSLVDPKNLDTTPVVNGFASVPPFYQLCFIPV
T2 sequence (P08684 whole entry, the tested form may be a part): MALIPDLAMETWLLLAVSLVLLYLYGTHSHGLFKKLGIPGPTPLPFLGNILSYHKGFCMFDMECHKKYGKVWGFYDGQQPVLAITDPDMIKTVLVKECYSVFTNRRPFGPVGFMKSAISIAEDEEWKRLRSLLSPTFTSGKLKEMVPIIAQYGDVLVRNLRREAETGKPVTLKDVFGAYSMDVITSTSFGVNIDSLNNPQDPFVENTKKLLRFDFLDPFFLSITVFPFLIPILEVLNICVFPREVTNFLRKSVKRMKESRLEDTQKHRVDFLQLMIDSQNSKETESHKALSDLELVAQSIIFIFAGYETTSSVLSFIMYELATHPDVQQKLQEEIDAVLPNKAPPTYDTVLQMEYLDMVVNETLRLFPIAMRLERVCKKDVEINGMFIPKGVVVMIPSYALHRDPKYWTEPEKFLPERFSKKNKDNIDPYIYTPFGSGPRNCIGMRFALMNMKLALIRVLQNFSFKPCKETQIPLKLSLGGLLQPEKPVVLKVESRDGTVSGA
T3 sequence (P33261 whole entry, the tested form may be a part): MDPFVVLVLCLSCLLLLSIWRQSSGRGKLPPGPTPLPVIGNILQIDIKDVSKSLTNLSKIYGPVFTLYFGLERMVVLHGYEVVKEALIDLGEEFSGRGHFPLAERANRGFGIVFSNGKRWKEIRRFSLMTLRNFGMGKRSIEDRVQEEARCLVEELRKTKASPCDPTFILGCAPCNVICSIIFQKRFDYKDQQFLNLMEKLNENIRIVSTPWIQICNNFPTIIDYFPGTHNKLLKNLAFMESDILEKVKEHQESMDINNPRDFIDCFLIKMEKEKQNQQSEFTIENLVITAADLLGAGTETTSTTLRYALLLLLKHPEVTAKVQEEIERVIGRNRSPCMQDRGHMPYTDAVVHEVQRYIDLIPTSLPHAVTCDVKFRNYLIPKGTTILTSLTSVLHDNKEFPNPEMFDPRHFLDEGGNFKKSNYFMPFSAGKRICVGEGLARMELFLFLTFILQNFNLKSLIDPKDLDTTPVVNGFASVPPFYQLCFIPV
T1 sequence (P10635 whole entry, the tested form may be a part): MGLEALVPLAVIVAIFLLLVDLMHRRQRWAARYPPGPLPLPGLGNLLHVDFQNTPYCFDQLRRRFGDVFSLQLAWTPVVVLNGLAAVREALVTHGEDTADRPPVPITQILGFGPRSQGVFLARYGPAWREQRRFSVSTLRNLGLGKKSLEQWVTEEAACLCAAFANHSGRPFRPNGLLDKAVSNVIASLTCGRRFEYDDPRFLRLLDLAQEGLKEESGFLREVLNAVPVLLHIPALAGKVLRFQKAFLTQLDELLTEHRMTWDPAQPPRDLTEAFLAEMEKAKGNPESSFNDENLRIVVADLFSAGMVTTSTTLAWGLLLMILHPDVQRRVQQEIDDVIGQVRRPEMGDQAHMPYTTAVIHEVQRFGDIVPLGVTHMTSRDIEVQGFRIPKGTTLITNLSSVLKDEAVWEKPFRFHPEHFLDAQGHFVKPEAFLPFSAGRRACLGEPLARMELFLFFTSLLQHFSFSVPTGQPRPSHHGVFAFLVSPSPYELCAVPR

IC50 (CYP2D6): > 50 µM
clearance [1]: 6.2 mL/min/kg
AUC [1, 5]: 9.16 µM·h
half-life [1, 6]: 3.81 h
IC50 (CYP3A4): > 50 µM
clearance ([2]; Day 1): 7.11 mL/min/kg
AUC ([2]; Day 1, read-out: Area under the concentration-time curve AUC): 156 µM·h
half-life ([2]; Day 1, read-out: Half-time T1/2 (converted)): 2.45 h
clearance ([2]; Day 5): 9.04 mL/min/kg
AUC ([2]; Day 5, read-out: Area under the concentration-time curve AUC): 123 µM·h
half-life ([2]; Day 5, read-out: Half-time T1/2 (converted)): 2.72 h
IC50 (CYP2C19): > 50 µM
clearance [4]: 15 mL/min/kg
AUC [4, 5]: 3.71 µM·h
half-life [4, 6]: 2.17 h
IC50 (CYP2C9): > 50 µM
SMILES: CC(C)(O)c1ccc(-c2cnc(C(C)(C)O)c(N)c2)cc1N [Compound 3]
percentage content of complexed products at 254 nm ([3]; Time 10 min): 3.265%
percentage content of complexed products at 254 nm ([3]; Time 100 min): 10.569%
percentage content of complexed products at 254 nm ([3]; Time 200 min): 17.191%
percentage content of complexed products at 254 nm ([3]; Time 300 min): 22.182%
Area under the curve AUC ([3]; nonanal 1.0 eq, compound 1.0 eq, 20-23° C., 10-300 min, HPLC 254 nm): 3979 min. Conversion
Slope (linear equation of percentage content of complexed products vs time) ([3]; nonanal 1.0 eq, compound 1.0 eq, 20-23° C., 10-300 min, HPLC 254 nm, in %/min): 0.0652
